# From patent publication US20220073536A1 (Rigel Pharmaceuticals, Inc., priority 2003, published 2022)
# Counter-ions that a name gives are not always drawn. Like-named read-outs stand apart in the source and are kept apart here.
# Test system: cultured human mast cells (CHMC)
# Assay: CHMC low cell density IgE activation: tryptase assay
# Format: cell-based
# How it was run: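 Low-density CHMC, 1000-1500 cells/well in MT; 1 hr 37 °C; anti-IgE challenge 30 min 37 °C; supernatant tryptase via fluorogenic substrate, 30 min RT.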
# [1] = low cell density CHMC, IgE activation, tryptase release, 8 pt, read-out: LD Tryptase, CHMC, IgE, 8 pt
# [2] = Homo sapiens, Mast cell, low cell density CHMC, IgE activation, tryptase release, 8 pt, read-out: LD Tryptase, CHMC, IgE, 8 pt
# [3] = low cell density CHMC, IgE activation, tryptase release, 3 pt, read-out: LD Tryptase, CHMC, IgE, 3 pt
# [4] = Homo sapiens, Mast cell, low cell density CHMC, IgE activation, tryptase release, 3 pt, read-out: LD Tryptase, CHMC, IgE, 3 pt
# [5] = Homo sapiens, Mast cell, low cell density, IgE activation, 3 pt, read-out: LD Tryptase, CHMC, IgE, 3 pt
# [6] = Homo sapiens, Mast cell, low cell density, IgE activation, 8 pt, read-out: LD Tryptase, CHMC, IgE, 8 pt
# [7] = low cell density, IgE activation, 3 pt, read-out: LD Tryptase, CHMC, IgE, 3 pt
# [8] = low cell density, IgE activation, 8 pt, read-out: LD Tryptase, CHMC, IgE, 8 pt
smiles,measurement,setting,value
"CCOP(=O)(NCCCn1ncc2cc(Nc3ncc(F)c(Nc4ccc(OC)c(Cl)c4)n3)ccc21)OCC [Compound 847, N4-(3-Chloro-4-methoxyphenyl)-N2-[1-(3-(diethylphosphonamido)propyl]indazol-5-yl]-5-fluoro-2,4-pyrimidinediamine]",IC50,[1],< 10 µM
"COc1ccc(Nc2nc(Nc3ccc4c(cnn4CCCNC(=O)C(C)(C)C)c3)ncc2F)cc1Cl [Compound 848, N4-(3-Chloro-4-methoxyphenyl)-5-fluoro-N2-[1-(3-pivalamidopropyl)indazol-5-yl]-2,4-pyrimidinediamine]",IC50,[2],< 10 µM
"CC(C)(C)C(=O)NCCCn1ncc2cc(Nc3ncc(F)c(Nc4ccc(Cl)c(Cl)c4)n3)ccc21 [Compound 849, N4-(3,4-Dichlorophenyl)-5-fluoro-N2-[1-(3-pivalamidopropyl)indazol-5-yl]-2,4-pyrimidinediamine]",IC50,[2],< 10 µM
"CC(C)(C)C(=O)NCCCn1ncc2cc(Nc3ncc(F)c(Nc4ccc5c(c4)NC(=O)C(C)(C)O5)n3)ccc21 [Compound 850, N4-(2,2-Dimethyl-3-oxo-4H-benz[1,4]oxazin-6-yl)-5-fluoro-N2-[1-(3-pivalamidopropyl)indazol-5-yl]-2,4-pyrimidinediamine]",IC50,[2],< 10 µM
"C[C@@H]1Oc2ccc(Nc3nc(Nc4ccc5c(cnn5CCCNC(=O)C(C)(C)C)c4)ncc3F)cc2NC1=O [Compound 851, 5-Fluoro-(S)-N4-(2-methyl-3-oxo-4H-benz[1,4]oxazin-6-yl)-N2-[1-(3-pivalamidopropyl)indazol-5-yl]-2,4-pyrimidinediamine]",IC50,[2],< 10 µM
"CC(C)(C)C(=O)NCCCn1ncc2cc(Nc3ncc(F)c(Nc4ccc5c(n4)NC(=O)C(C)(C)O5)n3)ccc21 [Compound 852, N4-(2,2-Dimethyl-3-oxo-4H-5-pyrido[1,4]oxazin-6-yl)-5-fluoro-N2-[1-(3-pivalamidopropyl)indazol-5-yl]-2,4-pyrimidinediamine]",IC50,[1],< 10 µM
"COc1ccc(Nc2nc(Nc3ccc4c(cnn4CCCN4C(=O)CCC4=O)c3)ncc2F)cc1Cl [Compound 853, N4-(3-Chloro-4-methoxyphenyl)-5-fluoro-N2-[1-[3-(N-succinimidopropyl)]indazol-5-yl]-2,4-pyrimidinediamine]",IC50,[3],< 10 µM
same,IC50,[1],< 10 µM
"O=C1CCC(=O)N1CCCn1ncc2cc(Nc3ncc(F)c(Nc4ccc(Cl)c(Cl)c4)n3)ccc21 [Compound 854, N4-(3,4-Dichlorophenyl)-5-fluoro-N2-[1-[3-(N-succinimidopropyl)]indazol-5-yl]-2,4-pyrimidinediamine]",IC50,[3],< 10 µM
same,IC50,[1],> 10 µM
"CC1(C)Oc2ccc(Nc3nc(Nc4ccc5c(cnn5CCCN5C(=O)CCC5=O)c4)ncc3F)cc2NC1=O [Compound 855, N4-(2,2-Dimethyl-3-oxo-4H-benz[1,4]oxazin-6-yl)-5-fluoro-N2-[1-[3-(N-succinimidopropyl)]indazol-5-yl]-2,4-pyrimidinediamine]",IC50,[3],< 10 µM
same,IC50,[1],< 10 µM
"C[C@@H]1Oc2ccc(Nc3nc(Nc4ccc5c(cnn5CCCN5C(=O)CCC5=O)c4)ncc3F)cc2NC1=O [Compound 856, (S)-5-Fluoro-N4-(2-methyl-3-oxo-2H,4H-benz[1,4]oxazin-6-yl)-N2-[1-[3-(N-succinimidopropyl)]indazol-5-yl]-2,4-pyrimidinediamine]",IC50,[3],< 10 µM
same,IC50,[1],< 10 µM
"CC1(C)Oc2ccc(Nc3nc(Nc4ccc5c(cnn5CCCN5C(=O)CCC5=O)c4)ncc3F)nc2NC1=O [Compound 857, N4-(2,2-Dimethyl-3-oxo-4H-5-pyrid[1,4]oxazin-6-yl)-5-fluoro-N2-[1-[3-(N-succinimidopropyl)]indazol-5-yl]-2,4-pyrimidinediamine]",IC50,[3],< 10 µM
same,IC50,[1],< 10 µM
"COc1ccc(Nc2nc(Nc3ccc4c(cnn4CCCN4C(=O)CCCC4=O)c3)ncc2F)cc1Cl [Compound 858, N4-(3-Chloro-4-methoxyphenyl)-N2-[1-[3-(2,6-dioxopiperidino]propyl)indazol-5-yl]-5-fluoro-2,4-pyrimidinediamine]",IC50,[4],< 10 µM
same,IC50,[2],< 10 µM
"O=C1CCCC(=O)N1CCCn1ncc2cc(Nc3ncc(F)c(Nc4ccc(Cl)c(Cl)c4)n3)ccc21 [Compound 859, N4-(3,4-Dichlorophenyl)-N2-[1-[3-(2,6-dioxopiperidino)propyl]indazol-5-yl]-5-fluoro-2,4-pyrimidinediamine]",IC50,[4],< 10 µM
same,IC50,[2],< 10 µM
"CC1(C)Oc2ccc(Nc3nc(Nc4ccc5c(cnn5CCCN5C(=O)CCCC5=O)c4)ncc3F)cc2NC1=O [Compound 860, N4-(2,2-Dimethyl-3-oxo-4H-benz[1,4]oxazin-6-yl)-N2-[1-[3-(2,6-dioxopiperidino]propyl)indazol-5-yl]-5-fluoro-2,4-pyrimidinediamine]",IC50,[4],< 10 µM
same,IC50,[2],< 10 µM
"C[C@@H]1Oc2ccc(Nc3nc(Nc4ccc5c(cnn5CCCN5C(=O)CCCC5=O)c4)ncc3F)cc2NC1=O [Compound 861, (S)-N2-[1-[3-(2,6-Dioxopiperidino]propyl)indazol-5-yl]-5-fluoro-N4-(2-methyl-3-oxo-2H,4H-benz[1,4]oxazin-6-yl)-2,4-pyrimidinediamine]",IC50,[4],< 10 µM
same,IC50,[2],< 10 µM
"CC1(C)Oc2ccc(Nc3nc(Nc4ccc5c(cnn5CCCN5C(=O)CCCC5=O)c4)ncc3F)nc2NC1=O [Compound 862, N4-(2,2-Dimethyl-3-oxo-4H-5-pyrid[1,4]oxazin-6-yl)-N2-[1-[3-(2,6-dioxopiperidino]propyl)indazol-5-yl]-5-fluoro-2,4-pyrimidinediamine]",IC50,[3],< 10 µM
same,IC50,[1],< 10 µM
"Fc1cnc(Nc2ccc3[nH]c(C(F)(F)F)nc3c2)nc1Nc1ccc(Cl)c(Cl)c1 [Compound 864, N4-(3,4-Dichlorophenyl)-5-fluoro-N2-(2-trifluoromethyl-1H-benzimidazol-5-yl)-2,4-pyrimidinediamine Ethanesulfonic Acid Salt]",IC50,"Homo sapiens, Mast cell, read-out: LD Tryptase, CHMC, IgE, 3 pt",> 10 µM
"CCOCCCn1ncc2cc(Nc3ncc(F)c(Nc4ccc(OC)c(Cl)c4)n3)ccc21 [Compound 871, N4-(3-Chloro-4-methoxyphenyl)-N2-[1-(3-ethoxypropyl)indazol-5-yl]-5-fluoro-2,4-pyrimidinediamine]",IC50,[5],< 10 µM
same,IC50,[6],< 10 µM
"CCOCCCn1ncc2cc(Nc3ncc(F)c(Nc4ccc(Cl)c(Cl)c4)n3)ccc21 [Compound 872, N4-(3,4-Dichlorophenyl)-N2-[1-(3-ethoxypropyl)indazol-5-yl]-5-fluoro-2,4-pyrimidinediamine]",IC50,[5],< 10 µM
"CCOCCCn1ncc2cc(Nc3ncc(F)c(Nc4ccc5c(c4)NC(=O)C(C)(C)O5)n3)ccc21 [Compound 873, N4-(2,2-Dimethyl-3-oxo-4H-benz[1,4]oxazin-6-yl)-N2-[1-(3-ethoxypropyl)indazol-5-yl]-5-fluoro-2,4-pyrimidinediamine]",IC50,[5],< 10 µM
same,IC50,[6],< 10 µM
"CCOCCCn1ncc2cc(Nc3ncc(F)c(Nc4ccc5c(c4)NC(=O)[C@H](C)O5)n3)ccc21 [Compound 874, (S)-N2-[1-(3-Ethoxypropyl)indazol-5-yl]-5-fluoro-N4-(2-methyl-3-oxo-2H,4H-benz[1,4]oxazin-6-yl)-2,4-pyrimidinediamine]",IC50,[5],< 10 µM
same,IC50,[6],< 10 µM
"CCOCCCn1ncc2cc(Nc3ncc(F)c(Nc4ccc5c(n4)NC(=O)C(C)(C)O5)n3)ccc21 [Compound 875, N4-(2,2-Dimethyl-3-oxo-4H-5-pyrid[1,4]oxazin-6-yl)-N2-[1-(3-ethoxypropyl)indazol-5-yl]-5-fluoro-2,4-pyrimidinediamine]",IC50,[7],< 10 µM
same,IC50,[8],< 10 µM
"COc1ccc(Nc2nc(Nc3cc(OC)c(OC)c(OC)c3)ncc2F)nc1Cl [Compound 876, N4-(2-Chloro-3-methoxypyrid-6-yl)-5-fluoro-N2-(3,4,5-trimethoxyphenyl)-2,4-pyrimidinediamine]",IC50,[5],< 10 µM
same,IC50,[6],< 10 µM
"COc1ccc(Nc2ncc(F)c(Nc3ccc(OC)c(Cl)n3)n2)cc1OC [Compound 877, N4-(2-Chloro-3-methoxypyrid-6-yl)-N2-(3,4-dimethoxyphenyl)-5-fluoro-2,4-pyrimidinediamine]",IC50,[5],< 10 µM
"COc1ccc(Nc2ncc(F)c(Nc3ccc(OC)c(Cl)n3)n2)cc1Cl [Compound 878, N2-(3-Chloro-4-methoxyphenyl)-N4-(2-chloro-3-methoxypyrid-6-yl)-5-fluoro-2,4-pyrimidinediamine]",IC50,[5],> 10 µM
"COc1ccc(Nc2nc(Nc3cc(C)cc(C)c3)ncc2F)nc1Cl [Compound 879, N4-(2-Chloro-3-methoxypyrid-6-yl)-N2-(3,5-dimethylphenyl)-5-fluoro-2,4-pyrimidinediamine]",IC50,[5],< 10 µM
same,IC50,[6],< 10 µM
"CNC(=O)COc1cccc(Nc2ncc(F)c(Nc3ccc(OC)c(Cl)n3)n2)c1 [Compound 880, N4-(2-Chloro-3-methoxypyrid-6-yl)-5-fluoro-N2-[3-(N-methylamino)carbonylmethyleneoxyphenyl]-2,4-pyrimidinediamine]",IC50,[7],< 10 µM
same,IC50,[8],< 10 µM
COc1ccc(Nc2nc(Nc3ccc4cn[nH]c4c3)ncc2F)nc1Cl [Compound 882],IC50,[5],< 10 µM
COc1ccc(Nc2nc(Nc3ccc4[nH]c(C(F)(F)F)nc4c3)ncc2F)nc1Cl [Compound 883],IC50,[5],< 10 µM
COc1ccc(Nc2nc(Nc3ccc4nc(C)[nH]c4c3)ncc2F)nc1Cl [Compound 884],IC50,[5],< 10 µM
COc1ccc(Nc2nc(Nc3ccc4cnn(C)c4c3)ncc2F)nc1Cl [Compound 885],IC50,[5],< 10 µM
COc1ccc(Nc2nc(Nc3ccc4c(cnn4C)c3)ncc2F)nc1Cl [Compound 886],IC50,[5],> 10 µM
CCn1ncc2ccc(Nc3ncc(F)c(Nc4ccc(OC)c(Cl)n4)n3)cc21 [Compound 887],IC50,[5],< 10 µM
